Assay results as given in PMC10509784 (RSC Advances, 2023).
Where two headings read alike, the source gives them in different places.

What was measured:
Assay type in all cases: cell-based
caspase 3/7 [1] = test: Caspase 3/7 activation assay in MCF-7 cells; settings: for Relative fold activation of caspase 3/7: MCF-7 treated with IC50, mean ± SEM; for activation of caspase 3/7: treated breast cancer cell lines (MCF-7 and MDA-MB 231), IC50s
MDA-MB 231 = test: MTT cytotoxicity on MDA-MB 231 breast cancer cells; settings: Homo sapiens, MDA-MB-231, read-out: MDA-MB 231 IC50
BAX [2] = test: BAX expression in treated MCF-7 cells; settings: for Relative fold change in BAX expression: MCF-7, mean ± SEM; for overexpression of apoptosis regulator BAX: tested cancer cell lines, MCF-7 and MDA-MB 231
Bcl-2 [3] = test: Bcl-2 expression in treated MDA-MB 231 cells; settings: MDA-MB 231, mean ± SEM
P53 [4] = test: Quantitative detection of P53 expression in treated MDA-MB 231 cells; settings: MDA-MB 231, vs control, mean ± SEM
Bcl-2 [5] = test: Bcl-2 expression in treated MCF-7 cells; settings: for Relative fold change in Bcl-2 expression: MCF-7, mean ± SEM; for diminished levels of Bcl-2: tested cancer cell lines, MCF-7 and MDA-MB 231
MCF-7 = test: MTT cytotoxicity on MCF-7 breast cancer cells
caspase 3/7 [6] = test: Caspase 3/7 activation assay in MDA-MB 231 cells; settings: MDA-MB 231 treated with IC50, mean ± SEM
Wi-38 = test: MTT cytotoxicity on normal fibroblasts; settings: Homo sapiens, WI-38, read-out: Wi-38 IC50
P53 [7] = test: Quantitative detection of P53 expression in treated MCF-7 cells; settings: MCF-7, vs control, mean ± SEM
BAX [8] = test: BAX expression in treated MDA-MB 231 cells; settings: MDA-MB 231, mean ± SEM
[9] = Homo sapiens, MCF7, read-out: MCF-7 IC50, MTT, mean ± SEM
[10] = read-out: MCF-7 IC50, MTT, mean ± SEM

Row | SMILES | Relative fold activation of caspase 3/7 (caspase 3/7 [1]) [fold] | IC50 (MDA-MB 231) [nM] | Relative fold change in BAX expression (BAX [2]) [fold] | Relative fold change in Bcl-2 expression (Bcl-2 [3]) [fold] | Relative fold change in the P53 expression (P53 [4]) [fold] | Relative fold change in the P53 expression (P53 [4]; listed as doxorubicin) [fold] | Relative fold change in Bcl-2 expression (Bcl-2 [5]) [fold] | IC50 (MCF-7; [9]) [nM] | Relative fold activation of caspase 3/7 (caspase 3/7 [6]) [fold] | IC50 (Wi-38) [nM] | Relative fold change in the P53 expression (P53 [7]) [fold] | Relative fold change in the P53 expression (P53 [7]; listed as doxorubicin) [fold] | Relative fold change in BAX expression (BAX [8]) [fold] | activation of caspase 3/7 (caspase 3/7 [1]) | overexpression of apoptosis regulator BAX (BAX [2]) | diminished levels of Bcl-2 (Bcl-2 [5]) | IC50 (MCF-7; [10]) [nM]
1 | COc1cccc2c1C(=O)c1c(O)c3c(c(O)c1C2=O)C[C@@](O)(C(=O)CO)C[C@@H]3O[C@H]1C[C@H](N)[C@H](O)[C@H](C)O1 [Doxorubicin, reference compound] | 1.881 ± 0.028 | 2830 ± 173 | 1.556 ± 0.054 | 0.798 ± 0.044 | 1.623 ± 0.122 | 1.6 | 0.592 ± 0.031 | 478 ± 76 | 1.272 ± 0.074 | 272 ± 53 | 2.148 ± 0.174 | 2.1 | 1.232 ± 0.019 | – | – | – | –
2 | CCOC(=O)c1ccc(NC(=O)C2(OC(=O)c3ccccc3C)CCCCC2)cc1 [Compound 9, 1-((4-(Ethoxycarbonyl)phenyl)carbamoyl)cyclohexyl-2-methylbenzoate] | – | 445 ± 4 | – | – | – | – | – | 440 ± 6 | – | 608 ± 12 | – | – | – | – | – | – | –
3 | NNC(=O)c1ccc(NC(=O)C2(O)CCCCC2)cc1 [Compound 16, N-(4-(Hydrazinecarbonyl)phenyl)-1-hydroxycyclohexane-1-carboxamide] | – | 1030 ± 36 | – | – | – | – | – | 968 ± 36 | – | 3327 ± 32 | – | – | – | – | – | – | –
4 | CCOC(=O)c1ccc(NC(=O)C(c2ccccc2)N(C(=O)c2ccccc2C)c2ccccc2)cc1 (centres unmarked) [Compound 3, Ethyl-4-(2-(2-methyl-N-phenylbenzamido)-2-phenylacetamido)benzoate] | 3.470 ± 0.0485 | 306 ± 14 | 2.448 ± 0.057 | – | – | – | 0.217 ± 0.006 | ~80 | – | 1330 ± 84 | 4.110 ± 0.1014 | – | – | 2.6–4.1 folds | 2.3–3.3 folds | 0.13–0.49 folds | 86 ± 16
5 | CCOC(=O)c1ccc(NC(=O)C(c2ccccc2)N(C(=O)c2cc([N+](=O)[O-])cc([N+](=O)[O-])c2)c2ccccc2)cc1 (centres unmarked) [Compound 6, Ethyl-4-(2-(3,5-dinitro-N-phenylbenzamido)-2-phenylacetamido)benzoate] | – | 370 ± 94 | – | – | – | – | – | 143 ± 16 | – | 538 ± 25 | – | – | – | – | – | – | –
6 | CCOC(=O)c1ccc(NC(=O)C(c2ccccc2)N(C(=O)c2ccccc2[N+](=O)[O-])c2ccccc2)cc1 (centres unmarked) [Compound 5, Ethyl-4-(2-(2-nitro-N-phenylbenzamido)-2-phenylacetamido)benzoate] | – | 302 ± 24 | – | – | – | – | – | 229 ± 42 | – | 570 ± 72 | – | – | – | – | – | – | –
7 | CCOC(=O)c1ccc(N2C(=O)C(c3ccccc3)N(c3ccccc3)C2=O)cc1 (centres unmarked) [Compound 8, Ethyl-4-(2,5-dioxo-3,4-diphenylimidazolidin-1-yl)benzoate] | 3.763 ± 0.011 | 146 ± 34 | 3.195 ± 0.082 | 0.454 ± 0.010 | 3.733 ± 0.023 | – | 0.163 ± 0.0035 | 78 ± 72 | 2.945 ± 0.0885 | 953 ± 37 | 4.810 ± 0.1014 | – | 2.479 ± 0.030 | 2.6–4.1 folds | 2.3–3.3 folds | 0.13–0.49 folds | –
8 | O=C(O)OC1(C(=O)Nc2ccc(C(=O)O)cc2)CCCCC1 [Compound 15, 4-(1-(Carboxyoxy)cyclohexane-1-carboxamido)benzoic acid] | – | 261 ± 25 | – | – | – | – | – | 264 ± 159 | – | 827 ± 4 | – | – | – | – | – | – | –
9 | CCOC(=O)c1ccc(NC(=O)C(c2ccccc2)N(C(=O)c2ccccc2I)c2ccccc2)cc1 (centres unmarked) [Compound 4, Ethyl-4-(2-(2-iodo-N-phenylbenzamido)-2-phenylacetamido)benzoate] | 3.113 ± 0.1012 | 188 ± 44 | 2.747 ± 0.1285 | 0.496 ± 0.005 | 3.309 ± 0.110 | – | 0.233 ± 0.0017 | 96 ± 7 | 2.618 ± 0.1615 | 418 ± 33 | 4.137 ± 0.0407 | – | 2.338 ± 0.021 | 2.6–4.1 folds | 2.3–3.3 folds | 0.13–0.49 folds | –
10 | CCOC(=O)c1ccc(NC(=O)C2(OC(=O)c3ccc(N=[N+]=[N-])cc3)CCCCC2)cc1 [Compound 10, 1-((4-(Ethoxycarbonyl)phenyl)carbamoyl)cyclohexyl-4-azidobenzoate] | – | 470 ± 12 | – | – | – | – | – | 439 ± 5 | – | 505 ± 1 | – | – | – | – | – | – | –
11 | O=C(NNC(=S)Nc1ccccc1)c1ccc(NC(=O)C2(O)CCCCC2)cc1 [Compound 17, 1-Hydroxy-N-(4-(2-(phenylcarbamothioyl)hydrazine-1-carbonyl)phenyl)cyclohexane-1-carboxamide] | 3.677 ± 0.0145 | 518 ± 81 | 3.042 ± 0.0365 | – | – | – | 0.201 ± 0.0075 | ~80 | – | 1540 ± 122 | 4.377 ± 0.144 | – | – | 2.6–4.1 folds | 2.3–3.3 folds | 0.13–0.49 folds | 82 ± 2
12 | CCOC(=O)c1ccc(NC(=O)C2(OC(=O)CNS(=O)(=O)c3ccccc3)CCCCC2)cc1 [Compound 13, Ethyl 4-(1-(2-(phenylsulfonamido)acetoxy)cyclohexanecarboxamido)benzoate] | – | 513 ± 66 | – | – | – | – | – | 142 ± 27 | – | 590 ± 26 | – | – | – | – | – | – | –
13 | CCOC(=O)c1ccc(NC(=O)C2(OC(=O)c3ccc(NS(=O)(=O)c4ccccc4)cc3)CCCCC2)cc1 [Compound 12, 1-((4-(Ethoxycarbonyl)phenyl)carbamoyl)cyclohexyl-4-(phenylsulfonamido)benzoate] | 4.105 ± 0.0795 | 135 | 3.337 ± 0.1485 | 0.376 ± 0.037 | 4.312 ± 0.075 | – | 0.129 ± 0.0027 | 65 ± 50 | 3.304 ± 0.0745 | 633 ± 1 | 5.168 ± 0.0676 | – | 2.683 ± 0.065 | 2.6–4.1 folds | 2.3–3.3 folds | 0.13–0.49 folds | –
14 | CCOC(=O)c1ccc(NC(=O)C(c2ccccc2)N(C(=O)C(F)(F)F)c2ccccc2)cc1 (centres unmarked) [Compound 2, Ethyl-4-(-phenyl-2-(2,2,2-trifluoro-N-phenylacetamido)acetamido)benzoate] | – | 472 ± 13 | – | – | – | – | – | 369 ± 14 | – | 147 ± 20 | – | – | – | – | – | – | –
15 | CCOC(=O)c1ccc(NC(=O)C2(OC(=O)c3ccc([N+](=O)[O-])cc3)CCCCC2)cc1 [Compound 11, 1-((4-(Ethoxycarbonyl)phenyl)carbamoyl)cyclohexyl 4-nitrobenzoate] | – | 756 ± 175 | – | – | – | – | – | 591 ± 35 | – | 516 ± 11 | – | – | – | – | – | – | –
